Bounds are passed on as bounds.

For orientation: inhibition means how much of the control response was suppressed.

For one assay, the target named is T1, P2X2/P2X3 heterotrimeric receptor (Homo sapiens) (UniProt Q9UBL9+P56373). Description: Antagonist activity against human P2X2/3 receptor expressed in HEK293/1321N1 cells assessed as inhibition of alpha,beta-meATP/ATP-induced calcium influx at 10 uM by Fluo-4 dye based FLIPR assay. In kind it is functional, cell-based.
Regarding `Cc1ccc(N2CCc3ncnc(N(C)Cc4ccc(F)cc4)c3C2)nc1`, the inhibition amounted to 50%. Same read-out and setting: the value for `Cc1ccc(N2CCc3ncnc(NCc4ccccc4C)c3C2)nc1` was over 75%; that for `CC1(C)C(=O)Nc2cc(Nc3ncnc4c3CN(c3ncccc3Cl)CC4)ccc21` was 0%.

In the case of `COc1ccccc1CNc1ncnc2c1CN(c1ccc(C)cn1)CC2`, the inhibition was over 75%. The same measure, in the same setting: the value for `Cc1ccc(N2CCc3ncnc(NCC4(O)CCCC(C)(C)C4)c3C2)nc1` (centres undefined) was 0%; that for `Cc1ccc(N2CCc3ncnc(NCCc4cccc(C(F)(F)F)c4)c3C2)nc1` was over 75%; that for `CC1(C)CNc2cc(Nc3ncnc4c3CN(c3ncccc3Cl)CC4)ccc21` was 0%. Regarding `Cc1ccccc1N1CCc2ncnc(Nc3ccc(C(F)(F)F)cc3)c2C1`, the inhibition came to 0%.

Turning to `Cc1ccc(N2CCc3ncnc(Nc4ccc(C(F)(F)F)cc4)c3C2)cc1`, the inhibition is 0%. Same read-out and setting: in the case of `COc1cccc(CNc2ncnc3c2CN(c2ccc(C)cn2)CC3)c1` it was over 75%; in that of `Cc1ccc(N2CCc3ncnc(NCC4CCCCC4)c3C2)nc1`, over 75%; in that of `Cc1ccc(N2CCc3ncnc(NCCc4ccccc4Cl)c3C2)nc1`, over 75%. Same read-out and setting: the value for `COc1ccc(CN(C)c2ncnc3c2CN(c2ccc(C)cn2)CC3)cc1OC` was over 75%. On the same count and under the same terms, in the case of `FC(F)(F)c1ccc(Nc2ncnc3c2CN(c2ncccc2Cl)CC3)cn1` it was 0%.

For the molecule `Cc1ccc(N2CCc3ncnc(NCc4cc(C(F)(F)F)ccc4Cl)c3C2)nc1`, the inhibition was determined as 0%.

For another assay, the target named is T1, P2X2/P2X3 heterotrimeric receptor (Homo sapiens). The assay is described as follows: Antagonist activity against human P2X2/3 receptor expressed in HEK293/1321N1 cells assessed as inhibition of alpha,beta-meATP/ATP-induced calcium influx at 3 uM by Fluo-4 dye based FLIPR assay. The class given is functional, cell-based.
With `Cc1ccc(N2CCc3ncnc(NCc4ccc(Cl)cc4Cl)c3C2)nc1`, the inhibition was found to be 0%. For the molecule `Cc1ccc(N2CCc3ncnc(NC(C)c4ccc(F)cc4)c3C2)nc1` (centres undefined), the inhibition is over 75%. Same read-out and setting: the value for `Cc1ccc(N2CCc3ncnc(NCc4ccc(F)c(F)c4)c3C2)nc1` was over 75%; that for `Cc1ccc(N2CCc3ncnc(NCc4cc(F)cc(C(F)(F)F)c4)c3C2)nc1` was 0%. Same read-out and setting: in the case of `Cc1ccc(N2CCc3ncnc(NCc4cc(C(F)(F)F)cc(C(F)(F)F)c4)c3C2)nc1` it was 0%. Same read-out and setting: in the case of `Cc1ccc(N2CCc3ncnc(N(C)Cc4ccc(F)cc4)c3C2)nc1` it was 0%. In the case of `Cc1ccc(N2CCc3ncnc(NCc4ccc(C(F)(F)F)cc4)c3C2)nc1`, the inhibition is over 75%. For the molecule `COc1cc(CNc2ncnc3c2CN(c2ccc(C)cn2)CC3)cc(OC)c1`, the inhibition was determined as 0%. On to `Cc1ccc(N2CCc3ncnc(NCc4ccc(OC(F)(F)F)cc4)c3C2)nc1`, for which the inhibition was determined as 50%. On the same count and under the same terms, the value for `COc1ccccc1CN(C)c1ncnc2c1CN(c1ccc(C)cn1)CC2` was 0%. On the same count and under the same terms, the value for `COc1ccc(CCNc2ncnc3c2CN(c2ccc(C)cn2)CC3)cc1` was over 75%. The same measure, in the same setting: the value for `Cc1ccc(N2CCc3ncnc(NCc4cc(C(F)(F)F)ccc4F)c3C2)nc1` was 0%. Regarding `Cc1ccc(N2CCc3ncnc(N(C)Cc4ccccc4)c3C2)nc1`, the inhibition is 0%.

Turning to `COc1ccc(CN(C)c2ncnc3c2CN(c2ccc(C)cn2)CC3)cc1`, the inhibition was determined as 0%.

With `Cc1ccc(N2CCc3ncnc(NCc4ccc(C(C)C)cc4)c3C2)nc1`, the inhibition turned out to be 0%.

In the case of `Cc1ccc(N2CCc3ncnc(NCc4cc(F)ccc4F)c3C2)nc1`, the inhibition is 50%. On the same count and under the same terms, in the case of `COc1cccc(CCNc2ncnc3c2CN(c2ccc(C)cn2)CC3)c1` it was over 75%; in that of `Cc1ccc(N2CCc3ncnc(NCc4cccc(F)c4F)c3C2)nc1`, over 75%.

For the molecule `Cc1ccc(N2CCc3ncnc(NCc4ccccc4OC(F)(F)F)c3C2)nc1`, the inhibition was over 75%.

In the case of `Cc1ccc(N2CCc3ncnc(NCc4ccc(Cl)c(Cl)c4)c3C2)nc1`, the inhibition turned out to be 0%. Same read-out and setting: in the case of `COc1ccc(CCNc2ncnc3c2CN(c2ccc(C)cn2)CC3)cc1OC` it was 50%; in that of `CN1CC(C)(C)c2ccc(Nc3ncnc4c3CN(c3ncccc3Cl)CC4)cc21`, 0%; in that of `Cc1ccc(N2CCc3ncnc(N(C)Cc4cccc(Cl)c4)c3C2)nc1`, 0%. The same measure, in the same setting: in the case of `Cc1ccc(N2CCc3ncnc(NCc4cccc(C)c4C)c3C2)nc1` it was 0%; in that of `Cc1ccc(N2CCc3ncnc(NCc4cccc(Cl)c4)c3C2)nc1`, over 75%; in that of `Cc1ccc(N2CCc3ncnc(NCCc4cccc(C(F)(F)F)c4)c3C2)nc1`, over 75%. Still for that read-out and setting: in the case of `Cc1ccc(N2CCc3ncnc(NCCc4ccc(Cl)cc4)c3C2)nc1` it was over 75%; in that of `Cc1ccc(N2CCc3ncnc(NCc4ccc(C(C)(C)C)cc4)c3C2)nc1`, 0%; in that of `Cc1ccc(N2CCc3ncnc(NCc4ccccc4OC(F)F)c3C2)nc1`, over 75%. With `Cc1ccc(N2CCc3ncnc(NCCc4ccc(Cl)c(Cl)c4)c3C2)nc1`, the inhibition worked out at 50%. On the same count and under the same terms, the value for `Cc1ccc(CCNc2ncnc3c2CN(c2ccc(C)cn2)CC3)cc1` was over 75%; that for `CCc1ccc(CN(C)c2ncnc3c2CN(c2ccc(C)cn2)CC3)cc1` was 0%. On to `Cc1ccc(N2CCc3ncnc(N(C)Cc4ccc(C(F)(F)F)cc4)c3C2)nc1`, for which the inhibition came out at 0%. Still for that read-out and setting: in the case of `Clc1cccnc1N1CCc2ncnc(Nc3ccccc3)c2C1` it was 0%; in that of `COc1ccc(CNc2ncnc3c2CN(c2ccc(C)cn2)CC3)cc1`, over 75%.

As for `Cc1ccc(CN(C)c2ncnc3c2CN(c2ccc(C)cn2)CC3)cc1`, the inhibition came out at 25%. The same measure, in the same setting: in the case of `Cc1ccc(N2CCc3ncnc(NCc4cc(Cl)ccc4F)c3C2)nc1` it was 50%; in that of `COc1cccc(CNc2ncnc3c2CN(c2ccc(C)cn2)CC3)c1`, over 75%.

With `Cc1ccc(N2CCc3ncnc(NCCc4ccccc4)c3C2)nc1`, the inhibition is over 75%. Same read-out and setting: the value for `Cc1ccc(N2CCc3ncnc(NCc4cc(Cl)cc(Cl)c4)c3C2)nc1` was 0%. Turning to `O=S(=O)(c1ccc(Nc2ncnc3c2CN(c2ncccc2Cl)CC3)cc1)C(F)(F)F`, the inhibition stood at 0%.

As to `Cc1ccc(N2CCc3ncnc(NCCc4ccccc4Cl)c3C2)nc1`, the inhibition was over 75%. Same read-out and setting: the value for `Cc1ccc(N2CCc3ncnc(NCc4ccc(F)c(C)c4)c3C2)nc1` was over 75%; that for `COc1cc(CCNc2ncnc3c2CN(c2ccc(C)cn2)CC3)cc(OC)c1` was 50%; that for `COc1ccc(CN(C)c2ncnc3c2CN(c2ccc(C)cn2)CC3)cc1OC` was 25%. Still for that read-out and setting: the value for `COc1cccc(CN(C)c2ncnc3c2CN(c2ccc(C)cn2)CC3)c1` was 0%; that for `Cc1ccc(N2CCc3ncnc(NCc4ccc(C(F)(F)F)cc4F)c3C2)nc1` was over 75%. As for `Cc1ccc(N2CCc3ncnc(NCc4ccccc4Cl)c3C2)nc1`, the inhibition is over 75%.

As to `Cc1ccc(CNc2ncnc3c2CN(c2ccc(C)cn2)CC3)cc1`, the inhibition was over 75%. For the molecule `Cc1ccc(N2CCc3ncnc(NCc4ccc(F)c(C(F)(F)F)c4)c3C2)nc1`, the inhibition amounted to 0%.

`Cc1ccc(N2CCc3ncnc(NCc4ccc(C)cc4C)c3C2)nc1`: the inhibition was found to be 25%. Same read-out and setting: the value for `Cc1ccc(N2CCc3ncnc(NCc4cc(C(F)(F)F)ccc4Cl)c3C2)nc1` was 0%. On the same count and under the same terms, in the case of `Cc1ccc(N2CCc3ncnc(NCc4cccc(C(F)(F)F)c4)c3C2)nc1` it was 50%.

In the case of `Cc1ccc(N2CCc3ncnc(NCc4ccc(Cl)cc4)c3C2)nc1`, the inhibition was over 75%. Same read-out and setting: in the case of `Cc1ccc(N2CCc3ncnc(NCc4ccc(Cl)cc4F)c3C2)nc1` it was 50%; in that of `Cc1ccc(N2CCc3ncnc(NCc4ccccc4C(F)(F)F)c3C2)nc1`, 50%. The same measure, in the same setting: the value for `Cc1ccc(N2CCc3ncnc(N(C)Cc4ccc(Cl)cc4)c3C2)nc1` was 0%; that for `Cc1ccc(N2CCc3ncnc(NCc4ccc5c(c4)OCO5)c3C2)nc1` was over 75%; that for `Cc1ccc(N2CCc3ncnc(NCc4cccc(F)c4)c3C2)nc1` was over 75%.

The record behind these values is ChEMBL document CHEMBL3727362, “Tetrahydronaphthyridine and tetrahydropyrido[4,3-D]pyrimidine compounds and compositions thereof useful for the treatment of inflammatory and respiratory diseases” (2014).
